Measured values taken from ChEMBL document CHEMBL5543174, “A Nonbactericidal Anionic Antimicrobial Peptide Provides Prophylactic and Therapeutic Efficacies against Bacterial Infections in Mice by Immunomodulatory-Antithrombotic Duality” (J Med Chem, 2024).
Activity calls are given as the source filed them.

How the values were obtained:
Mus musculus [1] = assay: Anticoagulation activity in mouse infected with Methicillin-resistant Staphylococcus aureus assessed as increase in plasma APC expression at 10 mg/kg,ip administrated 5 hrs after bacterial infection measured after 24 hrs by ELISA; format: functional, organism-based; settings: time 19.0 hrs
Neutrophil [2] = assay: Induction of degranulation in mouse bone marrow derived neutrophil assessed as increase in BD-2 release at 25 to 100 ug/ml incubated for 6 hrs by ELISA; format: functional, cell-based; settings: dose 25-100 µg/ml
Escherichia coli [3] = assay: Antibacterial activity against Escherichia coli ATCC 25922 infected in C57BL/6 mouse assessed as reduction in IL-6 level in peritoneal fluid at 10 mg/kg,ip pre-administrated 5 hrs before bacterial infection measured after 24 hrs by ELISA; format: functional, organism-based; settings: time 29.0 hrs
Escherichia coli [4] = assay: Antibacterial activity against Escherichia coli ATCC 25922 infected in C57BL/6 mouse assessed as reduction in inflammatory injury in lung at 10 mg/kg,ip administrated 5 hrs after bacterial infection measured after 24 hrs by hematoxylin and eosin staining based analysis; format: functional, organism-based; settings: time 19.0 hrs
Staphylococcus aureus [5] = assay: Antimicrobial activity against Staphylococcus aureus ATCC 25923 assessed as inhibition of microbial growth at <= 200 ug/ml incubated for 18 hrs by micro-broth dilution method; format: functional, organism-based; settings: dose <= 200.0 µg/ml
Staphylococcus aureus [6] = assay: Antibacterial activity against Methicillin-resistant Staphylococcus aureus infected in C57BL/6 mouse assessed as reduction in TNF-alpha level in serum at 10 mg/kg,ip pre-administrated 5 hrs before bacterial infection measured after 24 hrs by ELISA; format: functional, organism-based; settings: time 29.0 hrs
Escherichia coli [7] = assay: Antimicrobial activity against Carbapenem-resistant Escherichia coli assessed as reduction in metabolic activity at < 200 ug/ml incubated for 1 to 4 hrs by CCK-8 assay; format: functional, organism-based; settings: dose < 200.0 µg/ml, time 1-4 hrs
Staphylococcus aureus [8] = assay: Antibacterial activity against Staphylococcus aureus ATCC 25923 infected in C57BL/6 mouse assessed as reduction in bacterial load at 10 mg/kg,ip administrated 5 hrs after bacterial infection; format: functional, organism-based
Staphylococcus aureus [9] = assay: Antibacterial activity against Methicillin-resistant Staphylococcus aureus infected in C57BL/6 mouse with cyclophosphamide-induced neutrophil depletion model assessed as reduction of bacterial burden in peritoneal cavity at 10 mg/kg,ip administrated 5 hrs after bacterial infection measured after 24 hrs; format: functional, organism-based; settings: time 19.0 hrs
Staphylococcus aureus [10] = assay: Antibacterial activity against Methicillin-resistant Staphylococcus aureus infected in C57BL/6 mouse assessed as reduction in TNF-alpha level in serum at 10 mg/kg,ip administrated 5 hrs after bacterial infection measured after 24 hrs by ELISA; format: functional, organism-based; settings: time 19.0 hrs
Peritoneal macrophage [11] = assay: Induction of chemotaxis in mouse Peritoneal macrophage assessed as upregulation of MCP-1 production at 100 ug/ml preincubated with KN-62 followed by compound addition by ELISA; format: functional, cell-based; settings: dose 100.0 µg/ml
Neutrophil [12] = assay: Induction of degranulation in mouse bone marrow derived neutrophil assessed as increase in CRAMP release at 25 to 100 ug/ml incubated for 6 hrs by ELISA; format: functional, cell-based; settings: dose 25-100 µg/ml
Peritoneal macrophage [13] = assay: Immunoregulatory activity in mouse Peritoneal macrophage assessed as upregulation of ERK phosphorylation incubated for 1 hr by Western blotting analysis; format: functional, cell-based
Mus musculus [14] = assay: Immunomodulatory activity in cyclophosphamide immunosuppressed C57BL/6 mouse with neutrophil depletion model assessed as change in T-lymphocytes in peritoneal lavage at 10 mg/kg,ip administration measured after 5 to 24 hrs by flow cytometry; format: functional, organism-based; settings: time 5-24 hrs
Mus musculus [15] = assay: Anticoagulation activity in mouse assessed as change in plasma AT-III expression at 10 mg/kg,ip measured after 24 hrs by ELISA; format: functional, organism-based
Escherichia coli [16] = assay: Antibacterial activity against Escherichia coli ATCC 25922 infected in C57BL/6 mouse assessed as reduction in inflammatory injury in lung at 10 mg/kg,ip pre-administrated 5 hrs before bacterial infection measured after 24 hrs by hematoxylin and eosin staining based analysis; format: functional, organism-based; settings: time 29.0 hrs
[17] = test system: Peritoneal macrophage cell; assay: Induction of chemotaxis in mouse Peritoneal macrophage assessed as upregulation of CXCL1 production at 100 ug/ml preincubated with KN-62 followed by compound addition by ELISA; format: functional, cell-based; settings: dose 100.0 µg/ml
Staphylococcus aureus [18] = assay: Antibacterial activity against Methicillin-resistant Staphylococcus aureus infected in C57BL/6 mouse assessed as reduction in IL-6 level in peritoneal fluid at 10 mg/kg,ip administrated 5 hrs after bacterial infection measured after 24 hrs by ELISA; format: functional, organism-based; settings: time 19.0 hrs
[19] = test system: Peritoneal macrophage cell; assay: Induction of chemotaxis in mouse Peritoneal macrophage assessed as upregulation of IL-1beta expression at 25 to 100 ug/ml incubated for 6 hrs by ELISA; format: functional, cell-based; settings: dose 25-100 µg/ml
Mus musculus [20] = assay: Immunomodulatory activity in clodronate liposome immunosuppressed C57BL/6 mouse with monocyte depletion model assessed as increase in number of monocyte in peritoneal lavage at 10 mg/kg,ip administration measured after 24 hrs by flow cytometry; format: functional, organism-based
Escherichia coli [21] = assay: Antibacterial activity against Carbapenem-resistant Escherichia coli infected in C57BL/6 mouse with cyclophosphamide-induced neutrophil depletion model assessed as decrease in bacterial burden in peritoneal cavity at 10 mg/kg,ip administrated 5 hrs after bacterial infection measured after 24 hrs; format: functional, organism-based; settings: time 19.0 hrs
Mus musculus [22] = assay: Anticoagulation activity in mouse infected with Methicillin-resistant Staphylococcus aureus assessed as increase in plasma TFPI expression at 10 mg/kg,ip pre-administrated 5 hrs before bacterial infection measured after 24 hrs by ELISA; format: functional, organism-based; settings: time 29.0 hrs
Escherichia coli [23] = assay: Antibacterial activity against Carbapenem-resistant Escherichia coli infected in C57BL/6 mouse assessed as reduction in inflammatory injury in lung at 10 mg/kg,ip administrated 5 hrs after bacterial infection measured after 24 hrs by hematoxylin and eosin staining based analysis; format: functional, organism-based; settings: time 19.0 hrs
Mus musculus [24] = assay: Induction of chemotaxis in C57BL/6 mouse assessed as upregulation of MCP-1 expression in peritoneal lavage at 10 mg/kg,ip administration measured at 5 to 24 hrs by ELISA; format: functional, organism-based; settings: time 5-24 hrs
Neutrophil [25] = assay: Induction of immune response in mouse bone marrow derived neutrophil assessed as neutrophil extracellular trap formation at 100 ug/ml incubated for 4 hrs by DAPI staining based fluorescence microscopic analysis; format: functional, cell-based; settings: dose 100.0 µg/ml
Staphylococcus aureus [26] = assay: Antibacterial activity against Methicillin-resistant Staphylococcus aureus infected in C57BL/6 mouse assessed as reduction in TNF-alpha level in peritoneal fluid at 10 mg/kg,ip pre-administrated 5 hrs before bacterial infection measured after 24 hrs by ELISA; format: functional, organism-based; settings: time 29.0 hrs
Lymphocyte [27] = assay: Immunomodulatory activity in mouse spleen derived lymphocyte assessed as increase in lymphocyte proliferation at < 200 ug/ml incubated for 24 hrs by CCK-8 assay; format: functional, cell-based; settings: dose < 200.0 µg/ml
Peritoneal macrophage [28] = assay: Induction of chemotaxis in mouse Peritoneal macrophage assessed as upregulation of MCP-1 expression incubated for 6 hrs by ELISA; format: functional, cell-based
Lymphocyte [29] = assay: Immunomodulatory activity in mouse mesenteric lymph node derived lymphocyte assessed as increase in lymphocyte proliferation at < 200 ug/ml incubated for 24 hrs by CCK-8 assay; format: functional, cell-based; settings: dose < 200.0 µg/ml
Peritoneal macrophage [30] = assay: Induction of chemotaxis in mouse Peritoneal macrophage assessed as upregulation of CXCL1 production at 100 ug/ml preincubated with WRW4 followed by compound addition by ELISA; format: functional, cell-based; settings: dose 100.0 µg/ml
Peritoneal macrophage [31] = assay: Induction of chemotaxis in mouse Peritoneal macrophage assessed as upregulation of CXCL1 gene expression incubated for 6 hrs by qPCR analysis; format: functional, cell-based
Escherichia coli [32] = assay: Antimicrobial activity against Carbapenem-resistant Escherichia coli assessed as reduction in microbial colony forming unit at 200 ug/ml incubated for 1 to 4 hrs by time-kill kinetics based analysis; format: functional, organism-based; settings: dose 200.0 µg/ml, time 1-4 hrs

Measured: Activity

CC[C@H](C)[C@H](NC(=O)[C@@H]1CSSC[C@H](NC(=O)[C@H](CCC(=O)O)NC(=O)[C@@H](NC(=O)[C@H](CCCCN)NC(=O)[C@H](Cc2c[nH]cn2)NC(=O)[C@@H](NC(=O)[C@H](CCCCN)NC(=O)[C@H](CCC(=O)O)NC(=O)[C@H](C)NC(=O)[C@H](CCC(=O)O)NC(=O)[C@H](CCC(=O)O)NC(=O)[C@H](CCC(=O)O)NC(=O)[C@H](C)N)[C@@H](C)O)[C@@H](C)O)C(=O)N[C@@H](CC(C)C)C(=O)N[C@@H](CCC(=O)O)C(=O)N1)C(=O)N[C@@H](Cc1ccccc1)C(=O)N[C@H](C(=O)N[C@@H](CC(C)C)C(=O)N[C@@H](CC(C)C)C(=O)N1CCC[C@H]1C(=O)N1CCC[C@@H]1C(=O)N[C@H](C)C(=O)O)[C@@H](C)O
active: Mus musculus [1] | Escherichia coli [3] | Escherichia coli [4] | Staphylococcus aureus [6] | Staphylococcus aureus [8] | Staphylococcus aureus [10] | Peritoneal macrophage [11] | Neutrophil [12] | Peritoneal macrophage [13] Dose-Dependent Effect | Escherichia coli [16] | [17] | Staphylococcus aureus [18] | Mus musculus [22] | Escherichia coli [23] | Neutrophil [25] | Staphylococcus aureus [26] | Peritoneal macrophage [28] Dose-Dependent Effect | Peritoneal macrophage [30] | Peritoneal macrophage [31] Dose-Dependent Effect
inactive: Neutrophil [2] | Staphylococcus aureus [5] | Escherichia coli [7] | Staphylococcus aureus [9] | Mus musculus [14] | Mus musculus [15] | [19] | Mus musculus [20] | Escherichia coli [21] | Mus musculus [24] | Lymphocyte [27] | Lymphocyte [29] | Escherichia coli [32]
